Measured values: ChEMBL document CHEMBL5104107, “Toward the Design of Ligands Selective for the C-Terminal Domain of TEADs” (J Med Chem, 2022)

Tests used:
[1] = biological target: Transcriptional enhancer factor TEF-4 (Homo sapiens) (UniProt Q15562); experiment: Binding affinity to recombinant TEAD2 (unknown origin) assessed as increase in thermal stability by thermal shift assay
[2] = biological target: Transcriptional enhancer factor TEF-1 (Homo sapiens) (UniProt P28347); experiment: Binding affinity to recombinant TEAD1 (unknown origin) assessed as increase in thermal stability by thermal shift assay
Sequence of Transcriptional enhancer factor TEF-1 (Homo sapiens) (P28347 whole entry, the tested form may be a part): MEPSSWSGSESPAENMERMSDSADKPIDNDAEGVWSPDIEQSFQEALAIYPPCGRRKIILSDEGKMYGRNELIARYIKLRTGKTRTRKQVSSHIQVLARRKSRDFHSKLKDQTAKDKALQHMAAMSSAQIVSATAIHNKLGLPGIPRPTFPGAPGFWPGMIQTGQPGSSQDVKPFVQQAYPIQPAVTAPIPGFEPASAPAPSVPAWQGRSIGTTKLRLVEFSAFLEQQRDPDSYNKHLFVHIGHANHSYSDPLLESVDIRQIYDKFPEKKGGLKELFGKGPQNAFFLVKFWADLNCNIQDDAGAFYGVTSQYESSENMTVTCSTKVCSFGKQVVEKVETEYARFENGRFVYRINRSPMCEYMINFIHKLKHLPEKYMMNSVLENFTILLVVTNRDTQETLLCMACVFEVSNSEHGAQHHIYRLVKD

[3] = biological target: Transcriptional enhancer factor TEF-4 (Homo sapiens) (UniProt Q15562); experiment: Thermal stabilization of C-terminal human TEAD2 (217 to 447 residues) assessed as change in melting temperature by thermal shift assay

Sequence of Transcriptional enhancer factor TEF-4 (Homo sapiens) (Q15562 whole entry, the tested form may be a part): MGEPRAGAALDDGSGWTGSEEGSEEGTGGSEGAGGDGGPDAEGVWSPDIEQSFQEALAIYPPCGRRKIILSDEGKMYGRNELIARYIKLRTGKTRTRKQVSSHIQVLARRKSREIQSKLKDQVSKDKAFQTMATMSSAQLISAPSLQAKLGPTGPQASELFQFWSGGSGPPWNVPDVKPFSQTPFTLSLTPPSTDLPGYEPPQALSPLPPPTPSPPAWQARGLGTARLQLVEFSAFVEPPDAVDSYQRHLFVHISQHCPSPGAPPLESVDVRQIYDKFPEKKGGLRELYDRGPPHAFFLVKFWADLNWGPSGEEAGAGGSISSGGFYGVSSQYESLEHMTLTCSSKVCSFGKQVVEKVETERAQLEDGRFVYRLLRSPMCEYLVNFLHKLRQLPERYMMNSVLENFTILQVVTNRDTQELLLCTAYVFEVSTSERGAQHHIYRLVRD

CNS(=O)(=O)c1ccc(Nc2ccc(C(F)(F)F)cc2)c(-c2cn(C)cn2)c1
deltaT [1]: 4.2 °C
deltaT [2]: 8.3 °C

Nc1cccc(-c2cc[nH]n2)c1
ΔTm [3]: 0.95 °C
